Source: PubChem BioAssay (NCI)
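Results reflect a 48-hour exposure of cells in 96-well plates to compound at five concentrations. GI50 = concentration required for 50% inhibition of growth. At the TGI there is no net growth.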

Legend:
Experiment in all cases: NCI tumour cell line growth inhibition, 48 h
[1] = tested on: UACC-62 melanoma
[2] = tested on: SNB-75 CNS
[3] = tested on: HCT-15 colon
[4] = tested on: COLO 205 colon
[5] = tested on: SNB-19 CNS
[6] = tested on: NCI-H23 lung
[7] = tested on: LOX IMVI melanoma
[8] = tested on: HOP-62 NSCLC
[9] = tested on: SK-OV-3 ovarian
[10] = tested on: OVCAR-3 ovarian

Compound	TGI [1]	TGI [2]	TGI [3]	TGI [4]	TGI [5]	TGI [6]	TGI [7]	TGI [8]	TGI [9]	TGI [10]	GI50 [1]	GI50 [2]	GI50 [3]	GI50 [4]	GI50 [5]	GI50 [6]	GI50 [7]	GI50 [8]	GI50 [9]	GI50 [10]
O=C(NC(=O)c1cn(CCN2CCN(C(=O)NCCCCCCNC(=O)N3CCN(CCn4cc(C(=O)NC(=O)OCc5ccccc5)c(=O)[nH]c4=O)CC3)CC2)c(=O)[nH]c1=O)OCc1ccccc1	> 100 µM	> 100 µM	> 100 µM	> 100 µM	> 100 µM	> 100 µM	> 100 µM	> 100 µM	> 100 µM	> 100 µM	–	–	–	–	–	–	–	–	–	–
O=C(Nc1ccc2c(c1)OCCO2)C(=O)c1c[nH]c2ccccc12	> 100 µM	5.96 µM	> 100 µM	> 100 µM	79.7 µM	26.7 µM	> 100 µM	21.2 µM	8.62 µM	4.68 µM	1.43 µM	1.33 µM	0.967 µM	2.72 µM	2.88 µM	1.44 µM	1.3 µM	2.9 µM	1.5 µM	1.29 µM
CC(C)=C1CCC(CN2CCOCC2)C1=O (stereo not drawn)	33 µM	18 µM	22 µM	16.9 µM	> 91.9 µM	36.7 µM	41.9 µM	> 93.5 µM	> 100 µM	18.4 µM	–	–	–	–	–	–	–	–	–	–
Nc1ccc(-c2ccc3ncc4ccc(=O)n(-c5cccc(C(F)(F)F)c5)c4c3c2)cn1	0.026 µM	0.0227 µM	11.7 µM	0.683 µM	52.3 µM	2.35 µM	0.481 µM	1.47 µM	0.0222 µM	3.32 µM	< 0.01 µM	< 0.01 µM	< 0.01 µM	0.0245 µM	< 0.013 µM	< 0.013 µM	< 0.01 µM	< 0.01 µM	< 0.01 µM	< 0.01 µM
COc1cccc2nc3c(C(=O)NCCN(C)C)cccc3nc12	27 µM	> 47.9 µM	80.1 µM	28.8 µM	> 91.8 µM	27.2 µM	14.1 µM	38.2 µM	> 46.4 µM	73.9 µM	–	–	–	–	–	–	–	–	–	–
C/C(O)=C(\N=O)C(=O)NCc1ccccc1	> 100 µM	> 100 µM	> 100 µM	> 100 µM	> 100 µM	> 100 µM	36.6 µM	> 100 µM	> 100 µM	> 100 µM	–	–	–	–	–	–	–	–	–	–
O=C(Oc1ccccc1)C(Br)C(Br)c1ccccc1 (stereo not drawn)	18.2 µM	30.1 µM	6.24 µM	3.83 µM	24.6 µM	24.3 µM	4 µM	28.3 µM	29.3 µM	3.14 µM	5.51 µM	15.7 µM	2.32 µM	1.98 µM	11.9 µM	7.2 µM	1.9 µM	14.5 µM	15.9 µM	1.72 µM
CC(C)C(=S)N(C)O	> 61.9 µM	> 100 µM	> 100 µM	> 100 µM	> 100 µM	> 100 µM	62.5 µM	> 93.3 µM	> 100 µM	> 100 µM	–	–	–	–	–	–	–	–	–	–
COc1cc(C2c3cc4c(cc3[C@@H](N(C)c3ccc(N(C)C)cc3)C3COC(=O)C23)OCO4)cc(OC)c1O (stereo partly drawn)	23.1 µM	42.3 µM	25.7 µM	4.23 µM	42.6 µM	4.92 µM	16 µM	> 100 µM	43 µM	0.516 µM	–	–	–	–	–	–	–	–	–	–
O=C(O)Cn1ccc2ccccc21	> 100 µM	> 100 µM	> 100 µM	> 100 µM	> 100 µM	> 100 µM	> 100 µM	> 100 µM	> 100 µM	> 100 µM	> 100 µM	> 100 µM	> 100 µM	> 100 µM	> 100 µM	> 100 µM	> 100 µM	> 100 µM	> 100 µM	> 100 µM
CN1CCN(CCCOc2cccc3nc(Nc4ccc(F)c(F)c4)ccc23)CC1	1.6 µM	9.5 µM	3.42 µM	1.33 µM	10.2 µM	9.29 µM	3.36 µM	5.34 µM	8.87 µM	9.51 µM	0.695 µM	3.92 µM	0.956 µM	0.646 µM	4.89 µM	4.67 µM	1.03 µM	1.25 µM	4.39 µM	4.58 µM
CCOc1ccc(N=Cc2ccnc3ccccc23)cc1	> 100 µM	> 92.2 µM	> 87.9 µM	> 100 µM	> 100 µM	> 98 µM	> 80.3 µM	> 94 µM	> 83.3 µM	73.1 µM	–	–	–	–	–	–	–	–	–	–
C=C(CN1c2ccccc2Sc2ccccc21)c1ccc(C(=O)Nc2ccccc2N)cc1	> 100 µM	> 100 µM	> 100 µM	> 100 µM	> 100 µM	> 100 µM	> 100 µM	> 100 µM	> 100 µM	> 100 µM	93 µM	15.8 µM	> 42.5 µM	34.7 µM	> 54.3 µM	> 100 µM	> 52.7 µM	> 46.7 µM	11.7 µM	8.08 µM
CCn1c(=N)sc2nc3ccccc3n2c1=O	> 100 µM	> 100 µM	> 100 µM	> 100 µM	> 100 µM	> 100 µM	> 100 µM	> 100 µM	> 100 µM	> 100 µM	–	–	–	–	–	–	–	–	–	–
COC(=O)CC(=O)NCC1=CCC(=O)CC1	> 100 µM	> 100 µM	> 100 µM	> 100 µM	> 100 µM	> 100 µM	> 100 µM	> 100 µM	> 100 µM	> 100 µM	–	–	–	–	–	–	–	–	–	–
CC(=O)OC1C(O[C@H]2CC[C@]34O[C@]35CC[C@]3(C)C(C6(C)CC[C@@H](C(C)(C)O)O6)[C@@H](O)CC3(C)[C@@H]5CC(OC3OC(CO)C(O)C(O)C3O)C4C2(C)C)OCC(O)C1O (stereo partly drawn)	> 100 µM	> 100 µM	> 57.8 µM	> 73.8 µM	> 100 µM	> 100 µM	> 59.3 µM	> 100 µM	> 100 µM	> 100 µM	–	–	–	–	–	–	–	–	–	–

Compound	TGI [1]	TGI [2]	TGI [3]	TGI [4]	TGI [5]	TGI [6]	TGI [7]	TGI [8]	TGI [9]	TGI [10]	GI50 [1]	GI50 [2]	GI50 [3]	GI50 [4]	GI50 [5]	GI50 [6]	GI50 [7]	GI50 [8]	GI50 [9]	GI50 [10]
CC1=C(C(=O)Nc2ccccc2)C(c2cc(Cl)cc(Cl)c2)C(C(=O)Nc2ccccc2)=C(C)N1	22.2 µM	34 µM	18.6 µM	31 µM	27.5 µM	19.1 µM	24.6 µM	31.1 µM	98.7 µM	22.1 µM	–	–	–	–	–	–	–	–	–	–
CCOC(=O)C#Cc1c(C(=O)OCC)nnn1[C@@H]1O[C@H](CO)[C@H]2OC3(CCCCC3)O[C@H]21	4.55 µM	24.2 µM	3.53 µM	4.06 µM	40.5 µM	28.4 µM	2.83 µM	33.7 µM	33.3 µM	3.21 µM	2.02 µM	11.5 µM	1.87 µM	1.98 µM	18.3 µM	10.1 µM	1.31 µM	17.7 µM	17.7 µM	1.7 µM
CCC(=O)C(C(=O)CC)c1c(OC(=O)c2ccccc2)ccc(O)c1C(=O)OC	> 100 µM	> 100 µM	> 100 µM	> 100 µM	> 100 µM	> 100 µM	> 100 µM	> 100 µM	> 100 µM	> 100 µM	–	–	–	–	–	–	–	–	–	–
COc1ccc(-c2n[nH]nc2-c2cc(OC)c3c(c2)OCO3)cc1	49.2 µM	1.72 µM	> 36.2 µM	1.17 µM	> 100 µM	29.6 µM	16 µM	> 68.1 µM	2.08 µM	–	< 0.01 µM	0.0128 µM	< 0.01 µM	0.206 µM	0.0441 µM	0.0314 µM	0.0649 µM	< 0.0135 µM	0.0294 µM	0.0101 µM
CCc1nn2ncccc2c1-c1ccnc(NC2CC2)n1	> 25 µM	> 25 µM	> 25 µM	> 25 µM	> 25 µM	> 25 µM	> 25 µM	> 25 µM	> 25 µM	> 25 µM	> 25 µM	> 25 µM	> 25 µM	> 25 µM	> 25 µM	> 25 µM	> 25 µM	> 25 µM	> 25 µM	> 25 µM
CCN(CC)c1ccc2nc3ccc(N=Nc4ccc(O)cc4)cc3[n+](-c3ccccc3)c2c1	23.3 µM	21.9 µM	> 100 µM	3.1 µM	22.9 µM	40.3 µM	17.3 µM	15.1 µM	> 100 µM	4.02 µM	4.14 µM	10 µM	6.87 µM	1.26 µM	11 µM	3.75 µM	2.85 µM	2.68 µM	35.7 µM	0.359 µM
NC(=S)N/N=C1/CN(c2ccc(Cl)c(Cl)c2)CC(=O)C1c1nc2ccccc2s1 (stereo not drawn)	> 100 µM	> 100 µM	> 100 µM	> 100 µM	> 100 µM	> 100 µM	> 100 µM	> 100 µM	> 100 µM	> 100 µM	–	–	–	–	–	–	–	–	–	–
COC(=O)CCC(=O)N1CC1C (stereo not drawn)	> 100 µM	> 100 µM	> 100 µM	> 100 µM	> 100 µM	> 100 µM	> 100 µM	> 100 µM	> 100 µM	> 100 µM	–	–	–	–	–	–	–	–	–	–
CCN(CC)c1ccc(N=Nc2ccc(-c3nc4cccn(C)c-4n3)cc2)cc1	27.1 µM	38.9 µM	21 µM	27.9 µM	52.4 µM	34.7 µM	6.42 µM	24.7 µM	43.5 µM	23.1 µM	–	–	–	–	–	–	–	–	–	–
O=C1C=C(Nc2ccc(S(=O)(=O)Nc3ncccn3)cc2)c2ccccc2C1=O	32.9 µM	59.4 µM	47 µM	39.4 µM	90.2 µM	34.1 µM	30 µM	54.6 µM	90.7 µM	30.5 µM	–	–	–	–	–	–	–	–	–	–
COc1cc(-c2nccc3cc4c(cc23)OCO4)cc(OC)c1OC	> 100 µM	79.7 µM	> 100 µM	> 100 µM	> 100 µM	> 100 µM	> 100 µM	> 100 µM	> 100 µM	4.72 µM	4.55 µM	2.45 µM	3.57 µM	> 100 µM	7.34 µM	4.73 µM	6.06 µM	7.55 µM	4.48 µM	2.09 µM
CCN(CC)c1ccc(/C=N/NC(=O)CSc2nc3ccccc3c(=O)n2Cc2ccc(S(N)(=O)=O)cc2)c(O)c1	5.44 µM	> 100 µM	> 100 µM	> 100 µM	> 100 µM	> 100 µM	10.5 µM	> 100 µM	> 100 µM	> 100 µM	0.886 µM	2.86 µM	3.62 µM	1.51 µM	2.1 µM	1.96 µM	0.387 µM	0.961 µM	1.32 µM	0.287 µM
COc1cc(CN(c2ccc(C)cc2)C2OC(=O)c3ccccc32)cc(OC)c1OC (stereo not drawn)	> 100 µM	> 100 µM	> 100 µM	1.3 µM	> 100 µM	–	> 100 µM	> 67.4 µM	> 57.9 µM	13.7 µM	0.582 µM	0.285 µM	0.568 µM	0.351 µM	0.689 µM	0.427 µM	0.635 µM	0.627 µM	0.472 µM	0.328 µM
Cc1ccccc1N=Nc1c(-c2ccccc2)nn(C(=O)CC(=O)Nc2cccc(Cl)c2)c1-c1ccccc1	> 31.6 µM	> 31.6 µM	> 31.6 µM	20.8 µM	> 100 µM	> 31.6 µM	25.3 µM	> 31.6 µM	> 31.6 µM	> 31.6 µM	–	–	–	–	–	–	–	–	–	–
CCCCCCCCCCOC(=O)c1cc[n+](C)cc1	34 µM	34.3 µM	29.5 µM	30.3 µM	30.4 µM	35 µM	32.6 µM	30.6 µM	29.6 µM	28.9 µM	–	–	–	–	–	–	–	–	–	–
COc1ccc(-c2nn3ncccc3c2-c2ccnc(Nc3ccc4c(c3)OCCO4)n2)cc1	> 25 µM	> 25 µM	> 25 µM	> 25 µM	> 25 µM	> 25 µM	> 25 µM	> 25 µM	> 20.8 µM	> 25 µM	5.23 µM	> 13.9 µM	6.89 µM	13.1 µM	16.3 µM	9.22 µM	3.65 µM	9.64 µM	4.08 µM	9.86 µM
